Experiments:
[1] = system: L-MM3 murine breast cancer cells; assay: L-MM3 murine breast cancer in Balb/c mice, taxol and PLC, Experiment A (schedule A)
Description: (§2) Cell cultures of L-MM3 murine breast cancer cells were used, cultured at 37° C. in plastic flasks in a humidified atmosphere with 5% CO^2. The cells were grown in DMEM supplemented with 10% FCS and in the presence of 2 mM L-glutamine and 80 μg/ml of gentamicin. The subconfluent cells were collected during the exponential growth phase using trypsin-EDTA and re-suspended in DMEM. They were then injected subcutaneously in female Balb/c mice weighing 20 g at a density of 4×10^5.
(§3) The tumour was measured with a calliper three times a week as soon as it became palpable. The tumour mass is calculated on the basis of the measurements of the two dimensions (length and width), expressed in mm, according to the following formula: [formula]
(§4) If we consider conventionally a tumour density equal to 1, the result is that the tumour volume is equal to (mm^3=mg).
(§5) The agent is weighed, solubilised in the specific vehicle (12 mg/ml), and stored at +4° C., sheltered from the light. At the time of use, it is diluted 1:4 with saline solution in phosphate buffer (PBS, SIGMA) and injected.
(§6) Cremophor is diluted 1:1 with ethanol and stored sheltered from the light. On the day of treatment it is diluted 1:4 with PBS.

[2] = system: L-MM3 murine breast cancer cells; assay: L-MM3 murine breast cancer in Balb/c mice, taxol and PLC, Experiment B (schedule B)
Description: as §2, §3, §4, §5, §6

Hamsters [3] = assay: Bleomycin-induced pulmonary toxicity in hamsters: lung hydroxyproline content; format: in vivo, hamster; details: pre-treatment i.p. (ALC 200 mg/kg or saline, daily 1 week)/intratracheal instillation (bleomycin 1 unit or saline); day 22
Description: (§1) Hamsters weighing 120 g were treated with bleomycin (1 unit) by the intratracheal route (IT) or with an equivalent volume of saline. In addition, the animals were pre-treated with ALC (200 mg/kg) or saline intraperitoneally just before the instillation of bleomycin, followed by daily injections for 1 week. The animals were allowed 3 weeks to recover prior to taking the tissue samples. At the time tissue samples were taken (day 22), one lung of each animal was prepared for histological investigation and the other lung for quantitative determination of hydroxyproline.
The hydroxyproline content (one of the main constituents of collagen) was measured using the known Woessner method. Lung samples were homogenised, hydrolysed with NaOH, and then left to oxidise before adding Erlich aldehyde reagent. Duplicate aliquots of each sample were assayed by spectrophotometry and compared with a standard calibration curve obtained with purified hydroxyproline. The hydroxyproline content (HYP) is expressed as mg/lung.

Hamsters [4] = assay: Bleomycin-induced pulmonary toxicity in hamsters: lung histology; format: in vivo, hamster; details: pre-treatment/IT instillation; day 22
Description: as §1
The lungs were fixed by insufflation at 20 cm of H2O ex vivo with 10% formaldehyde in PBS (pH 7), embedded in paraffin, sectioned and stained with haematoxylin/eosin. Sections with similar orientation from the portion of the pulmonary lobe—upper, middle and lower, respectively—were examined to verify the presence and degree of inflammatory infiltrate, oedema and interstitial and intra-alveolar fibrosis.

CCC(=O)O[C@H](CC(=O)[O-])C[N+](C)(C)C [PLC, propionyl L-carnitine]
Animals with tumours/total number of animals, Day 22 [1]: 6/12
Animals with tumours/total number of animals, Day 25 [1]: 9/12
Animals with tumours/total number of animals, Day 28 [1]: 11/12
Animals with tumours/total number of animals, Day 36 [1]: 12/12
Animals with tumours/total number of animals, Day 46 [1]: 12/12
Tumour size, Day 22 [1]: 0.6 ± 0.3
Tumour size, Day 25 [1]: 1.2 ± 0.38
Tumour size, Day 28 [1]: 3 ± 0.4
Tumour size, Day 36 [1]: 9.5 ± 0.8
Tumour size, Day 46 [1]: 15 ± 1.1
Tumour size, Day 0 ([1]; day of inoculation): 0
Animals with tumours/total number of animals, Day 19 ([1]; taxol 30 mg/kg i.p. days 15,17,19,21, PLC 100 mg/kg s.c. days 12-24): 4/12
Animals with tumours/total animals, Day 45 [2]: 8/10
Animals with tumours/total animals, Day 59 [2]: 8/10
Tumour size, Day 26 [2]: 0.4 ± 0.3
Tumour size, Day 31 [2]: 0.5 ± 0.3
Tumour size, Day 37 [2]: 1.3 ± 0.6
Tumour size, Day 41 [2]: 2.2 ± 1.0
Tumour size, Day 45 [2]: 3.9 ± 1.2
Tumour size, Day 53 [2]: 5.6 ± 1.4
Tumour size, Day 59 [2]: 8 ± 2.2
Tumour size, Day 0 ([2]; day of inoculation): 0
Animals with tumours/total animals, Day 31 ([2]; taxol 30 mg/kg i.p. days 8,10,12,14, PLC 100 mg/kg s.c. to day 59): 3/10

bleomycin [Saline/bleomycin, reference compound]
hydroxyproline content (HYP) (Hamsters [3]): 1.831 mg/lung
lung histology (in words) (Hamsters [4]): dense fibrosis, alveolar atelectasis and oedema

Reference: patent publication US6610699B2, “Use of L-carnitine and its alkanoyl derivatives in the preparation of medicaments with anticancer activity” (Sigma-Tau Industrie Farmaceutiche Riunite S.p.A., priority 1998, dated 2003)
